From ChEMBL document CHEMBL4422690, “Synthesis of Rosmarinic Acid Amides as Antioxidative and Hypoglycemic Agents” (J Nat Prod, 2019)

Experiments:
[1] = Antioxidant activity assessed as DPPH radical scavenging activity incubated for 1.5 hrs under dark condition by spectrometric method; format: functional
[2] = Antioxidant activity assessed as trolox equivalents of AAPH radical scavenging activity at 50 uM preincubated for 10 mins followed by AAPH addition and measured every min for 30 mins by ORAC-FL assay; format: functional
[3] = Inhibition of yeast alpha-glucosidase using pNP-alpha-G as substrate measured after 30 mins; design: species or system Saccharomyces cerevisiae
[4] = Mixed-type inhibition of yeast alpha-glucosidase assessed as […] dissociation constant using varying levels of pNP-alpha-G as substrate incubated for 30 mins and measured at 1 min interval for 30 mins by Lineweaver-burk plot analysis; design: species or system Saccharomyces cerevisiae
[5] = Mixed-type inhibition of yeast alpha-glucosidase assessed as enzyme-substrate-inhibitor dissociation constant using varying levels of pNP-alpha-G as substrate incubated for 30 mins and measured at 1 min interval for 30 mins by Lineweaver-burk plot analysis; design: species or system Saccharomyces cerevisiae

Structure (SMILES) | IC50 [1] [µM] | Activity [2] [µMequiv/µM] | IC50 [3] [µM] | Ki [4] [µM] | Ki [5] [µM]
O=C(/C=C/c1ccc(O)c(O)c1)O[C@H](Cc1ccc(O)c(O)c1)C(=O)NCCc1ccc(O)cc1 | 7.1 | 3.28 | 74.9 | – | –
O=C(/C=C/c1ccc(O)c(O)c1)O[C@H](Cc1ccc(O)c(O)c1)C(=O)NCCN1CCCCC1 | 10.1 | 2.84 | 53.3 | – | –
O=C(/C=C/c1ccc(O)c(O)c1)O[C@H](Cc1ccc(O)c(O)c1)C(=O)NCCc1ccccc1 | 10.4 | 3.07 | 87.7 | – | –
O=c1c(O)c(-c2ccc(O)c(O)c2)oc2cc(O)cc(O)c12 [QUERCETIN] | 15.6 to 16.8 | 2.11 to 2.19 | – | – | –
CN(C)CCCNC(=O)[C@@H](Cc1ccc(O)c(O)c1)OC(=O)/C=C/c1ccc(O)c(O)c1 | 9.3 | 2.64 | 65.5 | – | –
Cc1ccc(CNC(=O)[C@@H](Cc2ccc(O)c(O)c2)OC(=O)/C=C/c2ccc(O)c(O)c2)cc1 | 10.1 | 2.62 | 109 | – | –
C[C@H]1O[C@H](O[C@H]2[C@H](O)[C@@H](O)[C@@H](O[C@H]3[C@H](O)[C@@H](O)C(O)O[C@@H]3CO)O[C@@H]2CO)[C@H](O)[C@@H](O)[C@@H]1N[C@H]1C=C(CO)[C@@H](O)[C@H](O)[C@H]1O (stereo partly drawn) [ACARBOSE] | – | – | 269 to 285 | – | –
CC(C)CNC(=O)[C@@H](Cc1ccc(O)c(O)c1)OC(=O)/C=C/c1ccc(O)c(O)c1 | 11.9 | 2.15 | 108 | – | –
O=C(/C=C/c1ccc(O)c(O)c1)O[C@H](Cc1ccc(O)c(O)c1)C(=O)NCc1ccccc1 | 8.2 | 2.79 | 111 | – | –
O=C(/C=C/c1ccc(O)c(O)c1)O[C@H](Cc1ccc(O)c(O)c1)C(=O)O [ROSMARINIC ACID] | 11 | 2.1 | 134 | – | –
CN1CCN(CCNC(=O)[C@@H](Cc2ccc(O)c(O)c2)OC(=O)/C=C/c2ccc(O)c(O)c2)CC1 | 9.7 | 2.77 | 35.2 | 22.8 | 34.8
CCN(CC)CCCNC(=O)[C@@H](Cc1ccc(O)c(O)c1)OC(=O)/C=C/c1ccc(O)c(O)c1 | 8.9 | 2.81 | 42.3 | – | –
CCCCNC(=O)[C@@H](Cc1ccc(O)c(O)c1)OC(=O)/C=C/c1ccc(O)c(O)c1 | 8.3 | 2.72 | 106 | – | –
